Article PMC3815312, “A Set of Engineered Escherichia coli Expression Strains for Selective Isotope and Reactivity Labeling of Amino Acid Side Chains and Flavin Cofactors” (PLoS ONE, 2013)

Target: T1, Slr1694 (SyPixD) (Synechocystis sp. PCC 6803, UniProt P74295)
T1 construct: wild type, expressed from pET28a(+)-slr1694 in E. coli CpX strains (CpXribF, CpXdeltaY); N-terminal vector extension (peptide 33-GSEFMSLYR-41 seen by MS); flavin incorporated in vivo; unlabeled, ring-13C6-Tyr or 13C apoprotein
T1 sequence (P74295 1-150): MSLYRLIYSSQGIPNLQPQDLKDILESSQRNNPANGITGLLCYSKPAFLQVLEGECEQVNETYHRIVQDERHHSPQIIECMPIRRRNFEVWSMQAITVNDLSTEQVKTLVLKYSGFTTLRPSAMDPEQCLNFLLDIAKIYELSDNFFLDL
Experiment: light-minus-dark FTIR difference spectroscopy of holoprotein
Assay type: binding
Details: in H2O; blue light 460 nm; non-covalent flavin incorporated in vivo (unlabeled riboflavin fed); bound flavin species not analysed, FMN and FAD named

SMILES: Cc1cc2nc3c(=O)[nH]c(=O)nc-3n(C[C@H](O)[C@H](O)[C@H](O)COP(=O)(O)OP(=O)(O)OC[C@H]3O[C@@H](n4cnc5c(N)ncnc54)[C@H](O)[C@@H]3O)c2cc1C [FAD]
- light-minus-dark FTIR difference spectroscopy of holoprotein: unlabeled riboflavin was provided in the medium throughout the cultivation procedure for the production of FMN and FAD cofactors
